According to patent US20230357152A1 (priority 2020, published 2023):

Assays:
Assay in all cases: microbe, parasite or virus in culture
Format in all cases: cell-based
Phytophthora infestans = settings: 168 h, read-out: Fungal growth at 31 ppm (%) PHYTIN
Septoria tritici = settings: Zymoseptoria tritici, 168 h
Fusarium culmorum = settings: 168 h

Compound	activity at 31 ppm (Phytophthora infestans) [%]	activity at 31 ppm (Septoria tritici) [%]	activity at 31 ppm (Fusarium culmorum) [%]
CO/N=C(/C(=O)OC)c1cccc(C)c1CO/N=C(\C)c1nccc2ccccc12 [Example 44]	15	2	–
CNC(=O)/C(=N/OC)c1cccc(C(F)(F)F)c1CO/N=C(\C)c1cc(-c2ccc(Cl)cc2)on1 [Example 17]	0	1	14
CO/N=C(/C(=O)OC)c1cccc(C)c1CO/N=C(\C)c1cc(-c2ccc(Cl)cc2)sn1 [Example 7]	–	–	11
CNC(=O)/C(=N/OC)c1cccc(C)c1CO/N=C(\C)c1cc(-c2ccc(Cl)cc2)sn1 [Example 8]	6	–	–
CO/N=C(/C(=O)OC)c1cccc(C)c1CO/N=C(\C)c1cnc(C)c(F)c1 [Example 100]	0	19	12
CO/N=C(/C(=O)OC)c1cccc(C)c1CO/N=C(\C)c1ccc(Cl)nn1 [Example 91]	0	–	16
CNC(=O)/C(=N/OC)c1cccc(C)c1CO/N=C(\C)c1nccc(C(F)(F)F)n1 [Example 73]	1	21	13
CO/N=C(/C(=O)OC)c1cccc(C)c1CO/N=C(\C)c1ccc(C#CC2CC2)nc1 [Example 68]	3	–	13
CO/N=C(/C(=O)OC)c1cccc(C)c1CO/N=C(\C)c1cn(C)nc1C(F)(F)F [Example 51]	–	3	8
CNC(=O)/C(=N/OC)c1cccc(C)c1CO/N=C(\C)c1cc(-c2ccccc2)sn1 [Example 38]	6	–	16
CNC(=O)/C(=N/OC)c1cccc(C)c1CO/N=C(\C)c1cc(OC)ccn1 [Example 56]	0	–	11
CO/N=C(/C(=O)OC)c1cccc(C(F)(F)F)c1CO/N=C(\C)c1cc(-c2ccc(Cl)cc2)on1 [Example 16]	–	–	19
CNC(=O)/C(=N/OC)c1cccc(C)c1CO/N=C(\C)c1cccc(OC)n1 [Example 3]	0	4	6
CNC(=O)/C(=N/OC)c1cccc(C)c1CO/N=C(\C)c1cc(-c2ccc(Cl)cc2)on1 [Example 20]	3	–	17
CNC(=O)/C(=N/OC)c1cccc(C)c1CO/N=C(\C)c1nccc2ccccc12 [Example 45]	0	6	4
CNC(=O)/C(=N/OC)c1cccc(C)c1CO/N=C(\C)c1cc(C(F)(F)F)nc(C)n1 [Example 58]	11	21	17
CO/N=C(/C(=O)OC)c1cccc(C)c1CO/N=C(\C)c1cc(-c2cccc(C(F)(F)F)c2)on1 [Example 19]	–	–	20
CNC(=O)/C(=N/OC)c1cccc(C)c1CO/N=C(\C)c1cc2ccccc2cn1 [Example 67]	0	5	9
CO/N=C(/C(=O)OC)c1cccc(C)c1CO/N=C(\C)c1nccc(C(F)(F)F)n1 [Example 71]	0	0	–
CNC(=O)/C(=N/OC)c1cccc(C)c1CO/N=C(\C)c1cncc(/C(C)=N/OC)n1 [Example 83]	–	–	21
CO/N=C(/C(=O)OC)c1cccc(C)c1CO/N=C(\C)c1cc(-c2cccc(C(F)(F)F)c2)sn1 [Example 35]	–	–	20
CO/N=C(/C(=O)OC)c1cccc(C)c1CO/N=C(\C)c1cncn1C [Example 102]	0	–	–
CNC(=O)/C(=N/OC)c1cccc(C)c1CO/N=C(\C)c1cc(C)ccn1 [Example 26]	0	7	12
CNC(=O)/C(=N/OC)c1cccc(C)c1CO/N=C(\C)c1cnc(C)c(F)c1 [Example 101]	0	–	15
CO/N=C(/C(=O)OC)c1cccc(C)c1CO/N=C(\C)c1ncsc1C(F)(F)F [Example 40]	8	0	–
CO/N=C(/C(=O)OC)c1cccc(C)c1CO/N=C(\C)c1cccc(C(F)(F)F)n1 [Example 1]	–	10	–
